Patent US12441768B2, “Compositions and methods for treating endometriosis” (EndoMet Biosciences, Inc., priority 2018, dated 2025)
Where two headings read alike, the source gives them in different places. Where a SMILES comes first, the peptide text is derived from it. [ ]: non-standard residue; d: D form. The star is where a group is joined. ξ: configuration not given here. NMeW = CN[C@@H](Cc1c[nH]c2ccccc12)C(=O)O; Palmitoyl = CCCCCCCCCCCCCCCC(=O)*; ξαMeV = CC(C)C(C)(N)C(=O)O; ξαMeS = CC(N)(CO)C(=O)O

What was measured:
[1] = molecular target: Wnt-responsive promoter (TCF/LEF); test: Wnt-dependent luciferase reporter assay; format: cell-based, murine
Protocol: The luciferase reporter assay is commonly used as a tool to study gene expression at the transcriptional level. Peptides from libraries described herein were characterized for ability to suppress transcription in cells with luciferase expression controlled by a Wnt-responsive promoter. Peptides were added to cells transfected with luciferase gene downstream of a Wnt-responsive promoter. Cells were stimulated with Wnt3a protein and incubated with peptides from libraries described herein. Luminescence was recorded to determine the peptides with the highest β-catenin-inhibiting activity. EC50 values were calculated based on the inhibition of luminescence and expressed as concentration (uM) in Table 5.
Peptides were assessed for their ability to inhibit Wnt signaling. Murine 3T3 fibroblasts that express luciferase under a Wnt-responsive promoter (TCF/LEF) (Enzo Life Sciences, Farmingdale, NY) were stimulated with Wnt3a in the presence of increasing concentrations of peptide inhibitor (Hit 1: SEQ ID NO:217, Hit 2: SEQ ID NO:224, Hit 3: SEQ ID NO:228, Hit 4: SEQ ID NO:227, Hit 5: SEQ ID NO:220, Hit 6: SEQ ID NO:168. Hit 7: SEQ ID NO:226) or with vehicle control (FIG. 2A).

β-catenin = molecular target: T1, β-catenin (Homo sapiens, UniProt P35222); test: KD50 measurement using competitive fluorescence polarization (FP) with labelled TCF4; format: binding; settings: fluorescence polarization, β-catenin
T1 sequence (P35222 1-781): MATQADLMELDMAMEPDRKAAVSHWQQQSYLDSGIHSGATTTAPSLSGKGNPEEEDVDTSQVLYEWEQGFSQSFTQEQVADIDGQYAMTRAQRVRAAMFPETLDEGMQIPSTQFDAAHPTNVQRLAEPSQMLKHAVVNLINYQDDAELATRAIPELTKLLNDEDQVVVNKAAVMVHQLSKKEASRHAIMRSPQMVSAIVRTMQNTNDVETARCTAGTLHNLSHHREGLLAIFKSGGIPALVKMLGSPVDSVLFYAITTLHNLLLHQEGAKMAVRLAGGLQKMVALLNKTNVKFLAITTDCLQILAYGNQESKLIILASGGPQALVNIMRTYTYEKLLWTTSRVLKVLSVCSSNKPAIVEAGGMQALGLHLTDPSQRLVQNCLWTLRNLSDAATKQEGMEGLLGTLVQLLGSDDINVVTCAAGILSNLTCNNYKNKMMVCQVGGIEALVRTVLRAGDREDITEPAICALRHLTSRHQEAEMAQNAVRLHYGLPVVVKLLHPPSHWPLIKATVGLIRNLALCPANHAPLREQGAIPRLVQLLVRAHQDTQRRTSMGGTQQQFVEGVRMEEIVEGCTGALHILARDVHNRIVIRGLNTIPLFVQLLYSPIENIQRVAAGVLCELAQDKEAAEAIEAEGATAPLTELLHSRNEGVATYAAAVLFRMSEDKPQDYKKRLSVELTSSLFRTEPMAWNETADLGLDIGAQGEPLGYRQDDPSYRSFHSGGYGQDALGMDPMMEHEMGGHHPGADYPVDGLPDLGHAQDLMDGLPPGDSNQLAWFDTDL
Outline: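 Labelled TCF4 (5 nM) mixed with 100 nM β-catenin at room temperature; inhibitor added as serial dilutions from 10 nM to 30 uM. Polarization read at excitation 470 nm/emission 520 nm; binding displacement lowers polarization. Three independent runs.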

EC50 [1] [µM]	β-Cat FP Hill slope (β-catenin)	Kd (β-catenin; read-out: β-Cat FP KD) [µM]	Structure (SMILES)	Kd (β-catenin; β-Cat FP KD) [µM]
7.5 to 15	–	> 30	CCCCCCCCCCCCCCCC(=O)N[C@@H](Cc1c[nH]c2ccccc12)C(=O)N(C)[C@@H](Cc1c[nH]c2ccccc12)C(=O)N[C@@H](CCC(=O)O)C(=O)NC(C)(CO)C(=O)N[C@H](C(=O)N[C@@H](CC(C)C)C(=O)N[C@@H](CC(=O)O)C(=O)N[C@@H](CCC(=O)O)C(=O)N[C@@H](Cc1c[nH]cn1)C(=O)NC(C)(C(=O)N[C@@H](CCC(N)=O)C(=O)N[C@@H](CCCNC(=N)N)C(=O)N[C@H](C(=O)N[C@@H](Cc1c[nH]c2ccccc12)C(=O)O)C(C)C)C(C)C)[C@@H](C)CC (stereo partly drawn) [compound 397] (Palmitoyl-W[NMeW]E[ξαMeS]ILDEH[ξαMeV]QRVW-OH)	–
> 30	–	> 30	CC[C@H](C)[C@H]1NC(=O)[C@@H](CO)NC(=O)[C@@H](CCC(=O)O)NC(=O)[C@H](Cc2c[nH]c3ccccc23)NC(=O)CCCCn2cc(nn2)CC(C(N)=O)NC(=O)[C@H](Cc2c[nH]c3ccccc23)NC(=O)[C@H](C(C)C)NC(=O)[C@H](CCCNC(=N)N)NC(=O)[C@@H](CCC(N)=O)NC(=O)[C@@H](C(C)C)NC(=O)[C@@H](Cc2cnc[nH]2)NC(=O)[C@H](CCC(=O)O)NC(=O)[C@H](CC(=O)O)NC(=O)[C@H](CC(C)C)NC1=O (stereo partly drawn) [compound 33]	–
7.5 to 15	0.89	< 0.4	CC[C@H](C)[C@H](NC(=O)[C@H](CO)NC(=O)[C@H](CCC(N)=O)NC(=O)[C@@H]1CCCN1C(=O)[C@H](Cc1c[nH]c2ccccc12)NC(C)=O)C(=O)N[C@@H](CC(C)C)C(=O)N[C@@H](CC(=O)O)C(=O)N[C@H]1CCC(=O)NCCCC[C@@H](C(=O)N[C@H](C(=O)N[C@@H](Cc2c[nH]c3ccccc23)C(=O)NCC(N)=O)C(C)C)NC(=O)[C@H](CCC(N)=O)NC(=O)[C@H](C2CCCCC2)NC(=O)[C@H](Cc2c[nH]cn2)NC1=O [compound 472] (HELM PEPTIDE1{[ac].W.P.Q.S.I.L.D.E.H.[O=C([C@@H](N[*:1])C1CCCCC1)[*:2]].Q.K.V.W.G.[am]}$PEPTIDE1,PEPTIDE1,9:R3-13:R3$$$V2.0)	–
> 30	0.94	< 0.4	CC[C@H](C)[C@@H]1NC(=O)[C@@H](NC(=O)[C@H](CCC(N)=O)NC(=O)[C@@H]2CCCN2C(=O)[C@H](Cc2c[nH]c3ccccc23)NC(=O)[C@H](CCCNC(=N)N)NC(C)=O)CCCCNC(=O)CC[C@@H](C(=O)N[C@@H](Cc2c[nH]cn2)C(=O)N[C@H](C(=O)N[C@@H](CCCNC(=N)N)C(=O)N[C@@H](CCCNC(=N)N)C(=O)N[C@H](C(=O)N[C@@H](Cc2c[nH]c3ccccc23)C(=O)N[C@@H](CCCNC(=N)N)C(N)=O)C(C)C)C(C)C)NC(=O)[C@H](CC(=O)O)NC(=O)[C@H](CC(C)C)NC1=O [compound 428] (HELM PEPTIDE1{[ac].R.W.P.Q.K.I.L.D.E.H.V.R.R.V.W.R.[am]}$PEPTIDE1,PEPTIDE1,6:R3-10:R3$$$V2.0)	–
> 30	0.7	< 0.4	CC[C@H](C)[C@@H]1NC(=O)[C@@H](NC(=O)[C@H](CCC(N)=O)NC(=O)[C@H](C)N(C)C(=O)[C@H](Cc2c[nH]c3ccccc23)NC(C)=O)CCCCNC(=O)CC[C@@H](C(=O)N[C@@H](Cc2c[nH]cn2)C(=O)N[C@H](C(=O)N[C@@H](CCC(N)=O)C(=O)N[C@@H](CCCNC(=N)N)C(=O)N[C@H](C(=O)N[C@@H](Cc2c[nH]c3ccccc23)C(=O)NCC(N)=O)C(C)C)C(C)C)NC(=O)[C@H](CC(=O)O)NC(=O)[C@H](CC(C)C)NC1=O [compound 402] (HELM PEPTIDE1{[ac].W.[meA].Q.K.I.L.D.E.H.V.Q.R.V.W.G.[am]}$PEPTIDE1,PEPTIDE1,5:R3-9:R3$$$V2.0)	–
> 30	0.7	< 0.4	CC[C@H](C)[C@H](NC(=O)[C@H](CO)NC(=O)[C@H](CCC(=O)O)NC(=O)[C@H](Cc1c[nH]c2ccccc12)N(C)C(=O)[C@H](Cc1c[nH]c2ccccc12)NC)C(=O)N[C@@H](CC(C)C)C(=O)N[C@@H](CC(=O)O)C(=O)N[C@@H](CCC(=O)O)C(=O)N[C@@H](Cc1c[nH]cn1)C(=O)N[C@H](C(=O)N[C@@H](CCC(N)=O)C(=O)N[C@@H](CCCNC(=N)N)C(=O)N[C@H](C(=O)N[C@@H](Cc1c[nH]c2ccccc12)C(=O)NCC(N)=O)C(C)C)C(C)C [compound 37] (HELM PEPTIDE1{[meW].[meW].E.S.I.L.D.E.H.V.Q.R.V.W.G.[am]}$$$$V2.0)	–

Second part, the compound before the results:

Structure (SMILES)	EC50 [1] [µM]	β-Cat FP Hill slope (β-catenin)	Kd (β-catenin; read-out: β-Cat FP KD) [µM]	Kd (β-catenin; β-Cat FP KD) [µM]
CCCCCCCCCCCC(=O)N[C@@H](Cc1c[nH]c2ccccc12)C(=O)N(C)[C@@H](C)C(=O)N[C@@H](CCC(N)=O)C(=O)N[C@H]1CCCCNC(=O)CC[C@@H](C(=O)N[C@@H](Cc2c[nH]cn2)C(=O)N[C@H](C(=O)N[C@H]2CCC(=O)NCCCC[C@@H](C(N)=O)NC(=O)[C@H](Cc3c[nH]c4ccccc34)NC(=O)[C@H](C(C)C)NC(=O)[C@H](CC(=O)O)NC2=O)C2CCCCC2)NC(=O)[C@H](CC(=O)O)NC(=O)[C@H](CC(C)C)NC(=O)[C@H]([C@@H](C)CC)NC1=O [compound 465] (HELM PEPTIDE1{[CCCCCCCCCCCC(=O)[*:2]].W.[meA].Q.K.I.L.D.E.H.[O=C([C@@H](N[*:1])C1CCCCC1)[*:2]].E.D.V.W.K.[am]}$PEPTIDE1,PEPTIDE1,5:R3-9:R3|PEPTIDE1,PEPTIDE1,12:R3-16:R3$$$V2.0; bridges inferred)	< 7.5	0.7	–	–
CC[C@H](C)[C@@H]1NC(=O)[C@@H](NC(=O)[C@H](CCC(N)=O)NC(=O)[C@H](C)N(C)C(=O)[C@H](Cc2c[nH]c3ccccc23)NC(C)=O)CCCCNC(=O)CC[C@@H](C(=O)N[C@@H](Cc2c[nH]cn2)C(=O)N[C@H](C(=O)N[C@@H](CCC(N)=O)C(=O)N[C@@H](CCCNC(=N)N)C(=O)N[C@H](C(=O)N[C@@H](Cc2c[nH]c3ccccc23)C(=O)N[C@@H](CCCNC(=N)N)C(N)=O)C(C)C)C2CCCCC2)NC(=O)[C@H](CC(=O)O)NC(=O)[C@H](CC(C)C)NC1=O [compound 449] (HELM PEPTIDE1{[ac].W.[meA].Q.K.I.L.D.E.H.[O=C([C@@H](N[*:1])C1CCCCC1)[*:2]].Q.R.V.W.R.[am]}$PEPTIDE1,PEPTIDE1,5:R3-9:R3$$$V2.0)	> 30	0.89	< 0.4	–
CC[C@H](C)[C@@H]1NC(=O)[C@@H](NC(=O)[C@H](CCC(N)=O)NC(=O)[C@H](C)N(C)C(=O)[C@H](Cc2c[nH]c3ccccc23)NC(C)=O)CCCCNC(=O)C[C@@H](C(=O)N[C@@H](Cc2c[nH]cn2)C(=O)N[C@H](C(=O)N[C@@H](CCC(N)=O)C(=O)N[C@@H](C)C(=O)N[C@H](C(N)=O)C(C)C)C2CCCCC2)NC(=O)[C@H](CC(N)=O)NC(=O)[C@H](CC(C)C)NC1=O [compound 452] (HELM PEPTIDE1{[ac].W.[meA].Q.K.I.L.N.D.H.[O=C([C@@H](N[*:1])C1CCCCC1)[*:2]].Q.A.V.[am]}$PEPTIDE1,PEPTIDE1,5:R3-9:R3$$$V2.0)	15 to 22.5	0.7	–	0.4 to 1
CC[C@H](C)[C@H](NC(=O)[C@H](CO)NC(=O)[C@H](CCC(=O)O)NC(=O)[C@@H]1CCCN1C(=O)[C@H](CC(C)C)NC(=O)[C@H](CCCNC(=N)N)NC(=O)CCNC(C)=O)C(=O)N[C@@H](CC(C)C)C(=O)N[C@@H](CC(=O)O)C(=O)N[C@@H](CCC(=O)O)C(=O)N[C@@H](Cc1c[nH]cn1)C(=O)N[C@H](C(=O)N[C@@H](CCC(N)=O)C(=O)N[C@@H](CCCNC(=N)N)C(=O)N[C@H](C(=O)N[C@@H](Cc1c[nH]c2ccccc12)C(=O)N1CCC[C@H]1C(N)=O)C(C)C)C(C)C [compound 413] (HELM PEPTIDE1{[ac].[bAla].R.L.P.E.S.I.L.D.E.H.V.Q.R.V.W.P.[am]}$$$$V2.0)	> 30	0.7	< 0.4	–
